In patent publication US20140142333A1, “NOVEL ANILINE DERIVATIVES AND USE THEREOF” (NEOMICS Co, Ltd., priority 2011, published 2014):

What was measured:
[1] = test system: WI-26 cells; assay: MTT assay on normal WI-26 cells (cytotoxicity); format: cell-based; conditions: MTT assay after 48 hours; data not shown
Procedure: As a result, 22 compounds were primarily screened. Normal cells, that is, WI-26 cells were treated with the 22 compounds.

[2] = test system: NCI-H460; assay: FACS assay of apoptosis in NCI-H460; format: cell-based, human; conditions: medium containing 2% FBS; FIG. 7
Procedure: Lung cancer cell line, NCI-H460, was cultured in RPMI (HyQ RPMI-1640, Hyclone) of streptomycin, containing 10% fetal bovine serum, and 1% penicillin. In order to investigate the effect of the inventive compound on a cell cycle, cells were treated with the inventive compound and cultured in medium containing 2% FBS. The cells were collected and subjected to FACS assay.

[3] = test system: NCI-H460 cells; assay: nude mouse transplanted with NCI-H460 cells, tumor growth inhibition; format: in vivo; conditions: salt form, 50 mg/kg once a day, 27 days
Procedure: A nude mouse transplanted with NCI-H460 cells (human-derived lung cancer cell line) was administered with the […], through intra-abdominal cavity and intra-subcutaneous injection. Then, a growth inhibiting effect of a tumor was tested. Mice were divided into three groups such as a negative control group, and groups administered with a test material in doses of 50 and 100 mg/kg. Each group included 10 mice. The negative control group was administered with a mixture solution containing DMSO (excipient), Tween80, PEG400, and injection water, and the groups administered with the test material in doses of 50 mg/kg were administered with the inventive compound once a day, for 27 days including an autopsy day, 28 times in total (4 times for intra-abdominal cavity injection and 24 times for intra-subcutaneous injection.
During the observation period, general symptoms were observed once a day, and the body weight of an animal and the volume of a tumor were measured twice a week. On the day before autopsy, all individuals were fasted for 18 hours or more. On the day of autopsy, 0.5, 1 and 2 hours 1 after the test material was administered, from 3 mice, 3 mice and 4 mice from respective groups, blood was collected and tumor was extracted.
The collected blood was placed in an EDTA-containing tube, and centrifuged to separate plasma. The extracted tumor was weighed. Half of the plasma and the tumor were rapidly frozen by liquid nitrogen and placed in a frozen state, and the rest were fixed with 10% neutral buffered formalin solution and sent to a test client.

[4] = test system: NCI-H460; assay: MTT assay on lung cancer cell line NCI-H460; format: cell-based, human; conditions: 0.04 uM, 0.4 uM and 4 uM; 24, 48 and 72 hours; serum free RPMI; FIG. 6
Procedure: Lung cancer cell line, NCI-H460, was cultured in RPMI (HyQ RPMI-1640, Hyclone) medium of streptomycin, containing 10% fetal bovine serum and 1% penicillin for 48 hours, and transferred to a 96-well plate. 12 hours later, the medium was replaced by serum free RPMI medium, and then the cell line was treated with the compound of Formula 1 at a concentration of 0.04 uM, 0.4 uM and 4 uM. 24 hours, 48 hours, and 72 hours later, MTT assay at each concentration was performed.

`CCOC(=O)CC(=O)Nc1ccc(C(=O)O)cc1` [P.C] was tested, and the “cytotoxicity in normal WI-26 cells” value [1] was “no cytotoxicity”, the “apoptosis rate of cancer cells (FACS)” value [2] was “concentration-dependently improves apoptosis rate” and the “body weight of mouse vs control group” value ([3]; FIG. 10) was “no difference”. The “tumors observed (photograph) vs control group” value ([3]; FIG. 12) was “visibly significantly reduced”, the “weight of tumor vs control group” value ([3]; at autopsy, FIG. 11) was “significantly reduced” and the “volume of the tumor vs control group” value ([3]; intra-abdominal and subcutaneous injection, FIG. 9) was “significantly reduced”. For the same compound, the “cell death of lung cancer cells (MTT)” value [4] was “cell death depending on treating time and concentration”.
